pIC50: −log10 of the molar value.

The experiment deals with Wild type FGFR2 (Homo sapiens (Human), UniProt P21802). The experiment in a line: FGFR2 kinase assay (fluorescence-based microfluidic mobility shift assay). Type of experiment: biochemical. As to conditions: wild type FGFR2 0.06 nM, 100 μM ATP, 80 minutes at room temperature; class symbols.
Sequence of Wild type FGFR2 (P21802 22-821): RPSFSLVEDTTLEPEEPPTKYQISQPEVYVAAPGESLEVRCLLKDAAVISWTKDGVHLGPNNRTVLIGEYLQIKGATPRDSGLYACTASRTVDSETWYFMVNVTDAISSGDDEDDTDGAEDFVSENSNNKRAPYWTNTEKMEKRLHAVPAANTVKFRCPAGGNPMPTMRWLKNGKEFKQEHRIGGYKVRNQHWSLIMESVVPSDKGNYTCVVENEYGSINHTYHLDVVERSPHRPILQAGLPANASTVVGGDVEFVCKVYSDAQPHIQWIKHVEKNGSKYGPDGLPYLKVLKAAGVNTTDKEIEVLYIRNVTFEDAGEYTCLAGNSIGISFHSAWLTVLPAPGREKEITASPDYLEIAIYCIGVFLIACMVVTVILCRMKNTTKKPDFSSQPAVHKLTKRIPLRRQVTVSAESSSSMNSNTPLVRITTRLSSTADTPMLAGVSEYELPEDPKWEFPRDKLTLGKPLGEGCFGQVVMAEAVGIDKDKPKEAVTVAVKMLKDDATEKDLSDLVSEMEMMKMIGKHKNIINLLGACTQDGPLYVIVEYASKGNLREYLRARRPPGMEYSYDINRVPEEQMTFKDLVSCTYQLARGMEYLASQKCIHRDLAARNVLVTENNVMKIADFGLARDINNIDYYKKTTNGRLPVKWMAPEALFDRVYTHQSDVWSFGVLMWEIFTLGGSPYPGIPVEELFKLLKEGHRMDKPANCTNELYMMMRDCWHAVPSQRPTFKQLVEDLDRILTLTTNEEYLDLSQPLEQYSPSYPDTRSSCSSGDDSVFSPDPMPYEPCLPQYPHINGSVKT
For `C=CC(=O)N1C[C@@H](n2nc(C#Cc3c(F)cc4c(ncn4C)c3F)c(C(N)=O)c2NC)C[C@@H]1COC` [Example 11], the pIC50 is no less than 7.00.

`C=CC(=O)N1C[C@@H](n2nc(C#Cc3ccc4c(cnn4CC)c3)c(C(N)=O)c2NC)C[C@@H]1COC` [Example 14]: the pIC50 is no less than 7.00.

For `C=CC(=O)N1C[C@@H](n2nc(C#Cc3ccc4nn(CC)cc4c3)c(C(N)=O)c2NC)C[C@@H]1COC` [Example 15, 1-((3S,5R)-1-acryloyl-5-(methoxymethyl)pyrrolidin-3-yl)-3-((2-ethyl-2H-indazol-5-yl)ethynyl)-5-(methylamino)-1H-pyrazole-4-carboxamide], the pIC50 is no less than 7.00.

On to `C=CC(=O)N1C[C@@H](n2nc(C#Cc3c(F)cc4c(nc(C)n4CC)c3F)c(C(N)=O)c2NC)C[C@@H]1COC` [Example 16, 1-((3S,5R)-1-acryloyl-5-(methoxymethyl)pyrrolidin-3-yl)-3-((1-ethyl-4,6-difluoro-2-methyl-1H-benzo[d]imidazol-5-yl)ethynyl)-5-(methylamino)-1H-pyrazole-4-carboxamide], for which the pIC50 was no less than 7.00.

Turning to `C=CC(=O)N1C[C@@H](n2nc(C#Cc3c(F)cc4[nH]c(C)nc4c3F)c(C(N)=O)c2NC)C[C@@H]1COC` [Example 17], the pIC50 was no less than 7.00.

As to `C=CC(=O)N1C[C@@H](n2nc(C#Cc3c(F)cc4c(nc(C)n4C)c3F)c(C(N)=O)c2NC)C[C@@H]1COC` [Example 18, 1-((3S,5R)-1-acryloyl-5-(methoxymethyl)pyrrolidin-3-yl)-3-((4,6-difluoro-1,2-dimethyl-1H-benzo[d]imidazol-5-yl)ethynyl)-5-(methylamino)-1H-pyrazole-4-carboxamide], the pIC50 is no less than 7.00.

For `C=CC(=O)N1C[C@@H](n2nc(C#Cc3c(F)cc4c(cnn4C)c3F)c(C(N)=O)c2NC)C[C@@H]1COC` [Example 19, 1-((3S,5R)-1-acryloyl-5-(methoxymethyl)pyrrolidin-3-yl)-3-((4,6-difluoro-1-methyl-1H-indazo1-5-yl)ethynyl)-5-(methylamino)-1H-1-pyrazole-4-carboxamide], the pIC50 is no less than 7.00.

Regarding `C=CC(=O)N1C[C@@H](n2nc(C#Cc3ccc4c(nc(C)n4C)c3F)c(C(N)=O)c2NC)C[C@@H]1COC` [Example 20, 1-((3S,5R)-1-acryloyl-5-(pethoxymethyl)pyrrolidin-3-yl)-3-((4-fluoro-1,2-dimethyl-1H-benzo[d]imidazol-5-yl)ethynyl)-5-(methylamino)-1H-pyrazole-4-carboxamide], the pIC50 is no less than 7.00.

`C=CC(=O)N1C[C@@H](n2nc(C#Cc3ccc4c(nc(C)n4CC)c3F)c(C(N)=O)c2NC)C[C@@H]1COC` [Example 21, 1-((3S,5R)-1-acryloyl-5-(methoxymethyl)pyrrolidin-3-yl)-3-((1-ethyl-4-fluoro-2-methyl-1H-benzo[d]imidazol-5-yl)ethynyl)-5-(methylamino)-1H-pyrazole-4-carboxamide]: the pIC50 is no less than 7.00.

`C=CC(=O)N1C[C@@H](n2nc(C#Cc3cnc4c(c3)nc(C)n4CC)c(C(N)=O)c2NC)C[C@@H]1COC` [Example 22, 1-((3S,5R)-1-acryloyl-5-(methoxymethyl)pyrrolidin-3-yl)-3-((3-ethyl-2-methyl-3H-imidazo[4,5-b]pyridin-6-yl)ethynyl)-5-(methylamino)-1H-pyrazole-4-carboxamide]: the negative logarithm of the IC50 (pIC50) is no less than 7.00.

As to `C=CC(=O)N1C[C@@H](n2nc(C#Cc3cnc4c(c3)ncn4C)c(C(N)=O)c2NC)C[C@@H]1COC` [Example 23, 1-((3S,5R)-1-acryloyl-5-(methoxymethyl)pyrrolidin-3-yl)-3-((3-methyl-3H-imidazo[4,5-b]pyridin-6-yl)ethynyl)-5-(methylamino)-1H-pyrazole—4-carboxamide], the pIC50 is no less than 7.00.

For the molecule `C=CC(=O)N1C[C@@H](n2nc(C#Cc3cc4nc(C)n(CC)c4cc3C#N)c(C(N)=O)c2NC)C[C@@H]1COC` [Example 24, 1-((3S,5R)-1-acryloyl-5-(methoxymethyl)pyrrolidin-3-yl)-3-((6-cyano-1-ethyl-2-methyl-1H-benzo[d]imidazol-5-yl)ethynyl)-5-(methylamino)-1H-pyrazole-4-carboxamide], the pIC50 was 6.00 to 7.00.

(Values after patent publication US11345681B1, “Inhibitors of fibroblast growth factor receptor kinases” (Kinnate Biopharma Inc., priority 2020, dated 2022).)
